Data on 5 compounds can be found in PubChem BioAssay AID2060493 (Molecular Pharmacology Branch, DTP, NCI, 2025).

The subject of the experiment is 616215-338-R-J1-PDC tumor spheroids, viability. Put plainly: Anticancer human tumor 616215-338-R-J1-PDC patient-derived colon adenocarcinoma cell line growth inhibition [GQUAD]. The following applies: spheroids with HUVEC and MSC; for viability, T/C: stronger effect = lower value. From the text:
DNA G-quadruplex Stabilizer Agents in Combinations in Complex Spheroids
A high-throughput screen of multi-cell type tumor spheroids was designed to identify active combinations of DNA G-quadruplex stabilizer agents and targeted small molecules. Complex spheroids include a stromal component modeled by human endothelial cells (HUVEC) and fibroblasts modeled by human mesenchymal stem cells (MSCs). The concentration ranges selected for each drug and investigational agent were based upon clinically achievable concentrations if the clinical Cmax of the agent was known.
Compounds. The drugs and investigational agents: pidnarulex (CX-5461; NSC782164), APTO-253 (NSC789042), BRACO-19 (NSC847499), peposertib (NSC802822), ceralasertib (NSC780249), elimusertib (NSC800525), camonsertib (NSC841442), AZD-1390 (NSC803789), olaparib (NSC753686), talazoparib (NSC767125), ART-558 (NSC835418), sotorasib (NSC818433), MRTX-1133 (NSC836407), SN-38 (NSC673596), topotecan (NSC609699), etoposide (NSC141540), doxorubicin (NSC123127), gemcitabine (NSC613327), 5-fluorouracil (NSC19893), paclitaxel (NSC125973), vemurafenib (NSC761431), panobinostat (NSC761190), R-306465 (JNJ-16241199; NSC773264), adavosertib (NSC754352), TP-3654 (NSC805149), carboplatin (NSC241240), KSQ-4279 (NSC840948), and staurosporine (NSC755774) were obtained from the National Cancer Institute (NCI) Developmental Therapeutics Program Chemical Repository (34). The FDA-approved anticancer drug set is available from the NCI Developmental Therapeutics Program. […] The stock solutions were prepared in dimethyl sulfoxide (DMSO, Sigma-Aldrich, St. Louis, MO, cat. D2650) at 800-fold the tested concentration and stored at -70 degrees C prior to their use. All drugs and investigational agents were tested over a range starting from a high concentration at or near the clinical Cmax and decreasing in half-log increments. If the clinical Cmax for an agent had not been determined, the highest concentration tested was 10 microM.
2.3 Cell Culture. All cells were maintained in an incubator at 37 degrees C and 5% CO2 with 95% humidity. The PDC lines were cultured according to standard operating procedures established by the NCI PDMR. All PDCs were thawed and cultured in Matrigel-coated flasks prepared with a working solution of 1X Ham's F-12 nutrient mix, without supplementation (Invitrogen, cat. 11765054), 100 U/mL penicillin-streptomycin (Invitrogen, cat. 15140122), and 2.5% Matrigel (Corning Inc., cat. 354248) for the first three passages. The 857933-349-R-J2-PDC line was cultured in 6C/Colon 1B media, which includes advanced DMEM/F-12 (Thermo Fisher Scientific, cat. 12634028), 10 mM HEPES (Thermo Fisher Scientific, cat. 15630080), 1X GlutaMAX supplement (Thermo Fisher Scientific, cat. 35050061), 0.1 mg/mL primocin (InvivoGen, cat. ant-pm-2), 10% defined fetal bovine serum, heat inactivated (HyClone Laboratories Inc., cat. SH30070.03HI), 50% L-WRN conditioned media (ATCC, cat. CRL-3276), 1.25 mM N-Acetyl-L-cysteine (Sigma-Aldrich, cat. A9165), 10 mM nicotinamide (Sigma-Aldrich, cat. N0636), 1X B-27 supplement (Thermo Fisher Scientific, cat. 17504044), 1X N-2 supplement (Thermo Fisher Scientific, cat. 17502048), 10 microM Y-27632 dihydrochloride (Tocris Bioscience, cat. 1254), and 50 ng/mL human EGF recombinant protein (Thermo Fisher Scientific, cat. PHG0311). The 485176-168-R4-J1-PDC line was cultured in Panc media, which includes all 6C/Colon 1B media components plus 100 ng/mL human FGF-10 (Thermo Fisher Scientific, cat. 100-26), 500 nM SB-431542 (Selleckchem, cat. S1067), and gastrin (Tocris, cat. 3006).
[…]

Where [1] appears, read: curve of first compound, second compound 0.0316 µM.
[2] abbreviates: curve of first compound, second compound 0.1 µM.
Where [3] appears, read: curve of first compound, second compound 0.316 µM.
Where [4] appears, read: curve of first compound, second compound 1 µM.
Setting [5] is: curve of first compound, second compound 3.16 µM.
[6] abbreviates: curve of first compound, second compound 10 µM.
Where [7] appears, read: second compound 0.0316 µM, first compound 0.0316 µM.
[8] abbreviates: second compound 0.0316 µM, first compound 0.1 µM.
Where [9] appears, read: second compound 0.0316 µM, first compound 0.316 µM.
[10] abbreviates: second compound 0.0316 µM, first compound 1 µM.
Setting [11] is: second compound 0.0316 µM, first compound 3.16 µM.
Setting [12] is: second compound 0.0316 µM, first compound 10 µM.
Where [13] appears, read: second compound 0.1 µM, first compound 0.0316 µM.
[14] abbreviates: second compound 0.1 µM, first compound 0.1 µM.
Where [15] appears, read: second compound 0.1 µM, first compound 0.316 µM.
The mark [16] stands for this setting: second compound 0.1 µM, first compound 1 µM.
Where [17] appears, read: second compound 0.1 µM, first compound 3.16 µM.
Setting [18] is: second compound 0.1 µM, first compound 10 µM.
Setting [19] is: second compound 0.316 µM, first compound 0.0316 µM.
Where [20] appears, read: second compound 0.316 µM, first compound 0.1 µM.
Where [21] appears, read: second compound 0.316 µM, first compound 0.316 µM.
The mark [22] stands for this setting: second compound 0.316 µM, first compound 1 µM.
[23] abbreviates: second compound 0.316 µM, first compound 3.16 µM.
Where [24] appears, read: second compound 0.316 µM, first compound 10 µM.
Setting [25] is: second compound 1 µM, first compound 0.0316 µM.
Setting [26] is: second compound 1 µM, first compound 0.1 µM.
Setting [27] is: second compound 1 µM, first compound 0.316 µM.
Where [28] appears, read: second compound 1 µM, first compound 1 µM.
Setting [29] is: second compound 1 µM, first compound 3.16 µM.
[30] abbreviates: second compound 1 µM, first compound 10 µM.
[31] abbreviates: second compound 3.16 µM, first compound 0.0316 µM.
Where [32] appears, read: second compound 3.16 µM, first compound 0.1 µM.
The mark [33] stands for this setting: second compound 3.16 µM, first compound 0.316 µM.
Where [34] appears, read: second compound 3.16 µM, first compound 1 µM.
The mark [35] stands for this setting: second compound 3.16 µM, first compound 3.16 µM.
The mark [36] stands for this setting: second compound 3.16 µM, first compound 10 µM.
Where [37] appears, read: second compound 10 µM, first compound 0.0316 µM.
The mark [38] stands for this setting: second compound 10 µM, first compound 0.1 µM.
Where [39] appears, read: second compound 10 µM, first compound 0.316 µM.
[40] abbreviates: second compound 10 µM, first compound 1 µM.
[41] abbreviates: second compound 10 µM, first compound 3.16 µM.
Where [42] appears, read: second compound 10 µM, first compound 10 µM.

Several values for one entry are separate records, joined by “and”; a condition that tells them apart may be missing. Identical values can stand only once.
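Also: spheroids exposed to agents for 7 days before readout.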
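For viability, T/C in this document: percent viability relative to DMSO vehicle control wells taken as 100%.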

Consider `COc1ccc([C@@H](O)c2cc(-c3ncnc4cc(N5CCOCC5)ccc34)c(F)cc2Cl)nn1` + CN(C)c1ccc(Nc2c3ccc(NC(=O)CCN4CCCC4)cc3nc3cc(NC(=O)CCN4CCCC4)ccc23)cc1, for which the IC50 (usually the midpoint of a concentration-inhibition curve) runs as follows: under setting [1], greater than 10000 nM; under setting [2], greater than 10000 nM; under setting [3], greater than 10000 nM; under setting [4], 8160 nM; under setting [5], 6040 nM; under setting [6], 3400 nM. For the same compound, the viability, T/C (as a rule, the result in the treated group divided by that in the control group, in per cent) by setting is: under setting [7], 105%; under setting [8], 99.2%; under setting [9], 101%; under setting [10], 98.1%; under setting [11], 93.1%; under setting [12], 58.6%. For the same compound, the viability, T/C by setting is: under setting [13], 96.3%; under setting [14], 94.6%; under setting [15], 104%; under setting [16], 102%; under setting [17], 87.6%; under setting [18], 55.6%. Moreover, the viability, T/C by setting is: under setting [19], 101%; under setting [20], 93%; under setting [21], 102%; under setting [22], 103%; under setting [23], 97.7%; under setting [24], 54.6%. Further, the viability, T/C is 97.7% under setting [25]; 100% under setting [26]; 94.3% under setting [27]; 92.7% under setting [28]; 89.1% under setting [29]; 41.3% under setting [30]. Besides, the viability, T/C is 91% under setting [31]; 89.9% under setting [32]; 90.4% under setting [33]; 101% under setting [34]; 74.9% under setting [35]; 30.6% under setting [36]. Moreover, the viability, T/C is 91.3% under setting [37]; 90.8% under setting [38]; 93.7% under setting [39]; 64.2% under setting [40]; 57.6% under setting [41]; 10.2% under setting [42].
Consider `CCCS(=O)(=O)Nc1ccc(F)c(C(=O)c2c[nH]c3ncc(-c4ccc(Cl)cc4)cc23)c1F` + Cc1cnc(CNC(=O)c2c(=O)c3ccc(N4CCCN(C)CC4)nc3n3c2sc2ccccc23)cn1, for which the half-maximal inhibitory concentration (IC50) is, setting by setting: under setting [1], 5390 nM; under setting [2], 2100 nM; under setting [3], less than 31.6 nM; under setting [4], less than 31.6 nM; under setting [5], less than 31.6 nM; under setting [6], less than 31.6 nM. Besides, the viability, T/C was 107% under setting [7]; 110% under setting [8]; 113% under setting [9]; 104% under setting [10]; 90% under setting [11]; 3.94% under setting [12]. For the same compound, the viability, T/C under setting [13] is 58.2%; the viability, T/C under setting [14] was 59%; the viability, T/C under setting [15] is 56%; the viability, T/C under setting [16] was 48.5%; the viability, T/C under setting [17] was 49.9%; the viability, T/C under setting [18] was 10.5%. The viability, T/C reads like this: under setting [19], 34.4%; under setting [20], 43.5%; under setting [21], 38.5%; under setting [22], 38.4%; under setting [23], 33.1%; under setting [24], 8.31%. Also, the viability, T/C by setting is: under setting [25], 31%; under setting [26], 34.2%; under setting [27], 36.7%; under setting [28], 35.9%; under setting [29], 37.1%; under setting [30], 4.42%. The viability, T/C is 31.1% under setting [31]; 18.5% under setting [32]; 32.4% under setting [33]; 23% under setting [34]; 27.7% under setting [35]; 0.11% under setting [36]. Further, the viability, T/C reads like this: under setting [37], 15.7%; under setting [38], 21.4%; under setting [39], 27.6%; under setting [40], 19.2%; under setting [41], 23.9%; under setting [42], 0.17%.
Consider `O=c1[nH]cc(F)c(=O)[nH]1`, for which the viability, T/C is 108% and 102% and 111% (compound 0.0316 µM); 94.5% and 99.6% and 87% (compound 0.1 µM); 68.3% and 78.9% and 59.7% (compound 0.316 µM); 40.8% and 52.1% and 38% (compound 1 µM); 39.3% and 43.9% and 33.4% (compound 3.16 µM); 38.3% and 41.7% and 35.4% (compound 10 µM). For the same compound, where the note is “curve of compound”, the IC50 is 729 nM and 1280 nM and 523 nM.
Regarding `C=CCn1c(=O)c2cnc(Nc3ccc(N4CCN(C)CC4)cc3)nc2n1-c1cccc(C(C)(C)O)n1`, the viability, T/C is 106% and 108% and 101% (compound 0.0316 µM); 94.6% and 98.4% and 92.7% (compound 0.1 µM); 53% and 53.7% and 76.8% (compound 0.316 µM); 24.1% and 24.6% and 28.5% (compound 1 µM); 13.3% and 13.7% and 23.5% (compound 3.16 µM); 12.5% and 12% and 23.2% (compound 10 µM). Further, the concentration for half-maximal inhibition (IC50) (curve of compound) is 367 nM and 381 nM and 601 nM.
For `CCc1c2c(nc3ccc(O)cc13)-c1cc3c(c(=O)n1C2)COC(=O)[C@]3(O)CC`, the viability, T/C runs as follows: (compound 0.000999 µM) 93.6% and 102% (2×); (compound 0.00316 µM) 75.4% and 93.8% and 87.9%; (compound 0.00999 µM) 63.3% and 61.1% and 66.4%; (compound 0.0316 µM) 24.8% and 30.3% and 29.4%; (compound 0.0999 µM) 22% and 16.5% and 16.2%; (compound 0.316 µM) 14.9% and 9.21% and 12.4%. In addition, the IC50 (curve of compound) was 13.9 nM and 15.6 nM and 16.3 nM.
